Results from the CheMixHub ionic liquid set.
± gives the uncertainty stated by the source.

Experiment: xn = mol fraction of the nth substance listed

CCCCCCCCCCCCCC[n+]1ccccc1.O=C([O-])C(O)c1ccccc1 + NCC(=O)O + O
electrical conductivity [S/m], 101 kPa
Conditions	293.15 K	298.15 K	303.15 K	308.15 K	313.15 K
x1 = 5.26e-06, x2 = 0.001799	0.00213 ± 0.00065	0.0024 ± 0.00073	0.00272 ± 0.00082	0.00305 ± 0.00091	0.0034 ± 0.001
x1 = 6.85e-06, x2 = 0	0.00248 ± 0.00074	0.00278 ± 0.00083	0.00309 ± 0.00092	0.0034 ± 0.001	0.0037 ± 0.0011
x1 = 8.31e-06, x2 = 0.0009002	0.00273 ± 0.00067	0.00309 ± 0.00075	0.00343 ± 0.00084	0.00385 ± 0.00094	0.0042 ± 0.001
x1 = 1.142e-05, x2 = 0.001799	0.00389 ± 0.00073	0.00438 ± 0.00082	0.00491 ± 0.00092	0.0055 ± 0.001	0.006 ± 0.0011
x1 = 1.319e-05, x2 = 0.0009002	0.00415 ± 0.00075	0.0047 ± 0.00085	0.00527 ± 0.00096	0.0058 ± 0.001	0.0064 ± 0.0011
x1 = 1.424e-05, x2 = 0	0.00472 ± 0.00079	0.00529 ± 0.00089	0.00587 ± 0.00099	0.0065 ± 0.0011	0.0071 ± 0.0012
x1 = 1.685e-05, x2 = 0.001799	0.0054 ± 0.00081	0.0061 ± 0.00092	0.0069 ± 0.001	0.0076 ± 0.0011	0.0084 ± 0.0013
x1 = 1.735e-05, x2 = 0.0009002	0.00534 ± 0.00078	0.00605 ± 0.00089	0.00678 ± 0.00099	0.0075 ± 0.0011	0.0082 ± 0.0012
x1 = 2.12e-05, x2 = 0.001799	0.0066 ± 0.00089	0.0075 ± 0.001	0.0084 ± 0.0011	0.0093 ± 0.0013	0.0102 ± 0.0014
x1 = 2.126e-05, x2 = 0	0.00671 ± 0.0009	0.0076 ± 0.001	0.0084 ± 0.0011	0.0093 ± 0.0013	0.0101 ± 0.0014
x1 = 2.367e-05, x2 = 0.0009002	0.00703 ± 0.00092	0.008 ± 0.001	0.0089 ± 0.0012	0.0099 ± 0.0013	0.0108 ± 0.0014
x1 = 2.591e-05, x2 = 0.001799	0.00789 ± 0.00099	0.009 ± 0.0011	0.01 ± 0.0012	0.0111 ± 0.0014	0.0122 ± 0.0015
x1 = 2.811e-05, x2 = 0	0.0086 ± 0.001	0.0097 ± 0.0012	0.0108 ± 0.0013	0.0122 ± 0.0015	0.0131 ± 0.0016
x1 = 2.982e-05, x2 = 0.0009002	0.0088 ± 0.001	0.0098 ± 0.0012	0.011 ± 0.0013	0.0122 ± 0.0014	0.0134 ± 0.0016
x1 = 3.081e-05, x2 = 0.001799	0.0092 ± 0.0011	0.0104 ± 0.0012	0.0117 ± 0.0014	0.013 ± 0.0015	0.0143 ± 0.0017
x1 = 3.46e-05, x2 = 0	0.0103 ± 0.0011	0.0116 ± 0.0013	0.0129 ± 0.0014	0.0145 ± 0.0016	0.0157 ± 0.0018
x1 = 3.668e-05, x2 = 0.0009002	0.0104 ± 0.0011	0.0118 ± 0.0013	0.0132 ± 0.0014	0.0146 ± 0.0016	0.0161 ± 0.0018
x1 = 3.679e-05, x2 = 0.001799	0.0106 ± 0.0012	0.012 ± 0.0013	0.0134 ± 0.0015	0.015 ± 0.0016	0.0166 ± 0.0018
x1 = 4.108e-05, x2 = 0	0.0117 ± 0.0012	0.0131 ± 0.0014	0.0146 ± 0.0015	0.0161 ± 0.0017	0.0179 ± 0.0019
x1 = 4.337e-05, x2 = 0.0009001	0.0117 ± 0.0012	0.0131 ± 0.0014	0.0148 ± 0.0015	0.0165 ± 0.0017	0.0183 ± 0.0019
x1 = 4.367e-05, x2 = 0.001799	0.0119 ± 0.0013	0.0134 ± 0.0014	0.015 ± 0.0016	0.0168 ± 0.0018	0.0186 ± 0.002
x1 = 4.811e-05, x2 = 0	0.0129 ± 0.0013	0.0144 ± 0.0015	0.0161 ± 0.0017	0.0179 ± 0.0019	0.0198 ± 0.0021
x1 = 4.951e-05, x2 = 0.0009001	0.0126 ± 0.0013	0.0143 ± 0.0015	0.0159 ± 0.0016	0.0178 ± 0.0018	0.0198 ± 0.002
x1 = 5.11e-05, x2 = 0.001799	0.0131 ± 0.0014	0.0148 ± 0.0015	0.0166 ± 0.0017	0.0186 ± 0.0019	0.0206 ± 0.0021
x1 = 5.388e-05, x2 = 0	0.0137 ± 0.0014	0.0154 ± 0.0016	0.0172 ± 0.0018	0.0191 ± 0.002	0.0211 ± 0.0022
x1 = 5.602e-05, x2 = 0.0009001	0.0135 ± 0.0014	0.0153 ± 0.0016	0.0171 ± 0.0018	0.0191 ± 0.0019	0.0212 ± 0.0022
x1 = 5.726e-05, x2 = 0.001799	0.014 ± 0.0014	0.0158 ± 0.0016	0.0176 ± 0.0018	0.0198 ± 0.002	0.0219 ± 0.0022
x1 = 5.982e-05, x2 = 0	0.0145 ± 0.0015	0.0163 ± 0.0017	0.0182 ± 0.0019	0.0202 ± 0.0021	0.0224 ± 0.0023
x1 = 6.216e-05, x2 = 0.0009001	0.0144 ± 0.0015	0.0162 ± 0.0016	0.0181 ± 0.0019	0.0202 ± 0.0021	0.0224 ± 0.0023
x1 = 6.361e-05, x2 = 0.001799	0.0149 ± 0.0015	0.0167 ± 0.0017	0.0187 ± 0.0019	0.0209 ± 0.0021	0.0232 ± 0.0024
x1 = 6.559e-05, x2 = 0	0.0153 ± 0.0016	0.0172 ± 0.0018	0.0192 ± 0.0019	0.0213 ± 0.0022	0.0236 ± 0.0024
x1 = 6.885e-05, x2 = 0.0009001	0.0154 ± 0.0016	0.0172 ± 0.0018	0.0192 ± 0.002	0.0214 ± 0.0022	0.0239 ± 0.0024
x1 = 6.959e-05, x2 = 0.001799	0.0156 ± 0.0016	0.0176 ± 0.0018	0.0197 ± 0.002	0.0221 ± 0.0023	0.0245 ± 0.0025
x1 = 7.081e-05, x2 = 0	0.016 ± 0.0016	0.018 ± 0.0018	0.02 ± 0.002	0.0223 ± 0.0023	0.0246 ± 0.0025
x1 = 7.463e-05, x2 = 0.0009001	0.0161 ± 0.0016	0.0181 ± 0.0018	0.0202 ± 0.0021	0.0225 ± 0.0023	0.0251 ± 0.0026
x1 = 7.593e-05, x2 = 0.001799	0.0165 ± 0.0017	0.0185 ± 0.0019	0.0207 ± 0.0021	0.0233 ± 0.0024	0.0258 ± 0.0026
x1 = 7.604e-05, x2 = 0	0.0167 ± 0.0017	0.0187 ± 0.0019	0.0209 ± 0.0021	0.0232 ± 0.0024	0.0258 ± 0.0026
x1 = 8.023e-05, x2 = 0.0009001	0.0168 ± 0.0017	0.0189 ± 0.0019	0.0211 ± 0.0021	0.0237 ± 0.0024	0.0263 ± 0.0027
x1 = 8.072e-05, x2 = 0	0.0173 ± 0.0018	0.0194 ± 0.002	0.0217 ± 0.0022	0.0241 ± 0.0024	0.0266 ± 0.0027

CC(=O)[O-].CC[NH2+]CC + O
Conditions	electrical conductivity [S/m]	viscosity [mPa·s]
283.15 K, 100.9 kPa, x1 = 0.168	–	27.4 ± 1.5
283.15 K, 100.9 kPa, x1 = 0.24	–	55.1 ± 2.8
283.15 K, 100.9 kPa, x1 = 0.351	–	92.3 ± 4.7
288.15 K, 100.9 kPa, x1 = 0.549	–	105 ± 5.4
295.65 K, 100.9 kPa, x1 = 0.168	–	14.67 ± 0.8
298.15 K, 101 kPa, x1 = 0.0174	2.06 ± 0.062	–
298.15 K, 101 kPa, x1 = 0.0967	2.21 ± 0.066	–
298.15 K, 101 kPa, x1 = 0.199	–	14.82 ± 0.91
298.15 K, 101 kPa, x1 = 0.1997	1.52 ± 0.046	–
298.15 K, 101 kPa, x1 = 0.6989	0.361 ± 0.011	–
298.15 K, 101 kPa, x1 = 0.877	–	57.2 ± 3.7
300.65 K, 100.9 kPa, x1 = 0.168	–	11.78 ± 0.64
303.15 K, 100.9 kPa, x1 = 0.168	2.24 ± 0.23	10.62 ± 0.58
303.15 K, 100.9 kPa, x1 = 0.351	–	30.6 ± 1.5
305.65 K, 100.9 kPa, x1 = 0.24	–	17.47 ± 0.9
310.65 K, 100.9 kPa, x1 = 0.24	–	14.12 ± 0.72
310.65 K, 100.9 kPa, x1 = 0.549	–	32.6 ± 1.6
313.15 K, 100.9 kPa, x1 = 0.549	–	29.2 ± 1.5
315.65 K, 100.9 kPa, x1 = 0.119	–	4.25 ± 0.22
315.65 K, 100.9 kPa, x1 = 0.168	–	6.65 ± 0.36
315.65 K, 100.9 kPa, x1 = 0.714	–	30.1 ± 1.5
318.15 K, 100.9 kPa, x1 = 0.007	2.25 ± 0.39	–
318.15 K, 100.9 kPa, x1 = 0.353	1.34 ± 0.14	–
328.15 K, 100.9 kPa, x1 = 0.015	–	0.728 ± 0.04
328.15 K, 100.9 kPa, x1 = 0.549	–	16.18 ± 0.82
330.65 K, 100.9 kPa, x1 = 0.015	–	0.692 ± 0.038
330.65 K, 100.9 kPa, x1 = 0.055	–	1.339 ± 0.07
330.65 K, 100.9 kPa, x1 = 0.119	–	2.78 ± 0.14
330.65 K, 100.9 kPa, x1 = 0.168	–	4.17 ± 0.22
333.15 K, 100.9 kPa, x1 = 0.007	2.64 ± 0.65	–
333.15 K, 100.9 kPa, x1 = 0.119	–	2.61 ± 0.13
333.15 K, 100.9 kPa, x1 = 0.351	–	9.26 ± 0.47
333.15 K, 100.9 kPa, x1 = 0.55	1.07 ± 0.11	–
333.15 K, 100.9 kPa, x1 = 0.84	–	15.7 ± 0.79
335.65 K, 100.9 kPa, x1 = 0.168	–	3.63 ± 0.19
340.65 K, 100.9 kPa, x1 = 0.168	–	3.19 ± 0.17
343.15 K, 100.9 kPa, x1 = 0.055	–	1.052 ± 0.055
348.15 K, 100.9 kPa, x1 = 0.353	2.81 ± 0.28	–
348.15 K, 100.9 kPa, x1 = 0.55	1.68 ± 0.17	–
348.15 K, 100.9 kPa, x1 = 0.714	1.3 ± 0.13	–
348.15 K, 100.9 kPa, x1 = 0.838	1.11 ± 0.11	–
363.15 K, 100.9 kPa, x1 = 0.168	9.08 ± 0.91	–
363.15 K, 100.9 kPa, x1 = 0.945	1.27 ± 0.13	–
